Source: US11052154B2, “Ras protein degradation inducing molecule and pharmaceutical composition” (Tokyo University of Science Foundation, priority 2016, dated 2021)
Where a SMILES comes first, the peptide text is derived from it. [ ]: non-standard residue; d: D form. Nle = CCCC[C@H](N)C(=O)O

How the values were obtained:
[1] = target: T1, catalytic subunit β5 of the proteasome (Homo sapiens, UniProt P28074); assay: Proteasome inhibitory activity, 20S proteasome β5 (chymotrypsin-like activity); type: biochemical; conditions: 20S proteasome assay kit, AMC fluorescence substrate; FIGS. 10C, 13C
T1 construct: purchased Bioscience (so in the source) 20S Proteasome StressXpress Assay Kit Gold
Experimental: (§1) In Reference Example 2, the proteasome inhibitory activity of TMP-CANDDY_DMT and the affinity of TMP-CANDDY_DMT with a proteasome were evaluated. As a positive control, MG-132 as a proteasome inhibitor was used.
(§2) For evaluation, 20S Proteasome StressXpress™ Assay Kit Gold (Bioscience) was used. AMC was measured by using Multi-Detection Microplate Reader (Synergy HT, BIO-TEK). The AMC was produced by cleaving the C-terminus of an AMC-binding proteasome fluorescence substrate specific to β subunits of a 20S proteasome, including β5 (chymotrypsin-like activity), β2 (trypsin-like activity), and β1 (caspase-like activity). The measuring wavelengths were 360 nm for excitation light (Ex.), and 460 nm for fluorescence (Em.).
(§3) In Reference Example 6, as in Reference Example 2, a proteasome inhibitory activity of TMP-CANDDY_ALLN and an affinity of TMP-CANDDY_ALLN with a proteasome were evaluated.

ecDHFR protein [2] = target: T2, ecDHFR protein (Escherichia coli, UniProt P0ABQ4); type: cell-based, human; conditions: HeLa cells, FIGS. 12A, 12B
T2 construct: expressed in transfected cells; host or cells: HeLa

[3] = target: T3, catalytic subunit β2 of the proteasome (Homo sapiens, UniProt Q99436); assay: Proteasome inhibitory activity, 20S proteasome β2 (trypsin-like activity); type: biochemical; conditions: 20S proteasome assay kit, AMC fluorescence substrate; FIGS. 10B, 13B
T3 construct: purchased Bioscience (so in the source) 20S Proteasome StressXpress Assay Kit Gold
Experimental: as §1, §2, §3

ecDHFR protein [4] = target: T2, ecDHFR protein; type: cell-based, human; conditions: HeLa cells, 24 hours after addition, vs control (DMSO); FIGS. 11, 14
[5] = target: T4, catalytic subunit β1 of a proteasome (Homo sapiens, UniProt P28072); assay: Proteasome inhibitory activity, 20S proteasome β1 (caspase-like activity); type: biochemical; conditions: 20S proteasome assay kit, AMC fluorescence substrate; FIGS. 10A, 13A
T4 construct: purchased Bioscience (so in the source) 20S Proteasome StressXpress Assay Kit Gold
Experimental: as §1, §2, §3

[6] = test system: interaction between the Ras protein and the SOS protein; conditions: known from Sun, Q. et al.; cited from earlier work
[7] = target: T5, endogenous wild-type H-Ras protein (Mus musculus, UniProt Q61411); assay: Degradation of endogenous wild-type H-Ras protein in mouse pancreas and colorectal tissue, Western blot analysis; type: in vivo; conditions: C57BL/6J mice, intraperitoneal, TUS-007 40 or 80 mg/kg, Ras-SOS 80 mg/kg, 48 hours; pancreas and colon; FIG. 8
T5 construct: an endogenous wild-type K-Ras protein and wild-type H-Ras protein; from tissue; host or cells: mouse pancreas and colon
Experimental: (§4) In Example 9, in a mouse individual to which TUS-007 had been administered, the degradation (knockdown) of an endogenous wild-type K-Ras protein and wild-type H-Ras protein was evaluated by Western blot analysis.
(§5) TUS-007 was dissolved in DMSO, and then dissolved in corn oil so that the concentration of DMSO was 10 vol %, and then intraperitoneally administered to C57BL/6J wild-type mice (8 to 9 weeks old, male) (CLEA Japan, Inc.) in an amount of 40 mg/kg body weight or 80 mg/kg body weight (n=3 to 4). Furthermore, in addition to a group in which TUS-007 was administered, a group in which Ras-SOS had been administered in a dose of 80 mg/kg body weight was prepared. As a control, an injection carrier (corn oil containing 10 vol % DMSO) was used. The mice were kept under an environment of ad libitum access to food and water. The mice were dissected under deep anesthesia 48 hours after administration. The pancreas and colon were excised, and flash frozen in liquid nitrogen.
(§6) The frozen pancreas and colon were each triturated, and then TKM tissue lysis buffer (50 mM triethanolamine (pH 7.8), 50 mM KCl, 5 mM MgCl2, 0.25 M sucrose, 1 mM PMSF, Protein Inhibitors Cocktail-EDTA free (Nacalai Tesque, Inc.), 1 mM DTT, and a recombinant RNase inhibitor (0.2 U/μL, Takara Bio) were added, and subjected to centrifugation (at 13800 rpm×30 minutes, 4° C.), and the supernatants (pancreatic tissue extract and colorectal tissue extract) were collected. The concentration of the extracted proteins was quantified with a spectrophotometer.
(§7) Each tissue extract collected was subjected to Western blot analysis. […]
(§8) After electrophoresis, proteins were transferred to a PVDF membrane (Immobion™-P, Millipore) under conditions of 200 mA and 90 minutes using a tank-type blotting device and a transfer buffer (25 mM Tris-HCl, 195 mM glycine, 0.01% SDS, 15% methanol). […] Subsequently, the membrane was treated with a chemiluminescence reagent Immobilon™ Western (Millipore), and then chemiluminescence was detected using a lumino image analyzer LAS-3000 (FUJIFILM Corporation).

K-Ras protein = conditions: known from Sun, Q. et al.; cited from earlier work
HeLa cells = assay: Apoptosis induction in HeLa cells, FACS analysis (Annexin V/PI); type: cell-based, human; conditions: HeLa cells expressing wild-type K-Ras, 24 hours after addition; FIGS. 6A, 7A
Experimental: (§9) In Example 7, apoptosis induction in a case where TUS-007, Ras-SOS, or Ras-SOS-NH2 was added to HeLa cells or SW1990 cells (human pancreatic cancer cells) had been added was evaluated by the FACS analysis. It is noted that in HeLa cells, the wild-type K-Ras protein (K-Ras-WT) is expressed, and in SW1990 cells, the G12D mutant K-Ras protein (K-Ras-G12D) is expressed.
(§10) HeLa cells or SW1990 cells were seeded in a 24-well plate at a cell density of 8×10^4 cells/well, and then cultured under conditions of 37° C. and 5 vol % CO2 for 16 hours.
(§11) After 16 hours from cell seeding, TUS-007, Ras-SOS, or Ras-SOS-NH2 were added to HeLa cells or SW1990 cells as follows. As a medium, a serum-free medium (37° C.) in which 1 mass % L-glutamine solution (Sigma-Aldrich) was added to D-MEM (high D-glucose, phenol red, sodium pyruvate (Wako Pure Chemical Industries, Ltd.)) was used. It is noted that the L-glutamine solution was added immediately before use. A DMSO solution containing TUS-007, Ras-SOS, or Ras-SOS-NH2 was mixed with the medium so that the concentration of DMSO was 1 vol %, and added to each well at 500 μL/well, and cultured under conditions of 37° C. and 5 vol % CO2. As a control, DMSO was used.
(§12) The medium was removed 24 hours after addition of TUS-007, Ras-SOS, or Ras-SOS-NH2, and then PBS was added to wash the cells. After removing PBS, trypsin (0.25 w/v % trypsin-1 mmol/L EDTA⋅4 Na solution with phenol red) (Wako Pure Chemical Industries, Ltd.) at 37° C. was added to each well at 200 μL/well, and cultured under conditions of 37° C. and 5 vol % CO2 for 1 minute. […]
(§13) A BD FACSCanto™ II (BD Biosciences) was used for flow cytometry. […] The proportion of Annexin V-positive and PI-negative cells was calculated using an analysis software FlowJo™ (TOMY Digital Biology Co., Ltd.), and the proportion was defined as a proportion of apoptosis cells.
(§14) In Example 8, apoptosis induction in a case where TUS-007, Ras-SOS-NH2, or erlotinib as an anticancer agent (EGFR inhibitor) was added to HeLa cells or SW1990 cells was evaluated by FACS analysis as in Example 7.

SW1990 cells = assay: Apoptosis induction in SW1990 cells, FACS analysis (Annexin V/PI); type: cell-based, human; conditions: SW1990 cells expressing G12D mutant K-Ras, 24 hours after addition; FIGS. 6B, 7B
Experimental: as §9, §10, §11, §12, §13, §14

[8] = target: T6, endogenous wild-type K-Ras protein (Mus musculus, UniProt P32883); assay: Degradation of endogenous wild-type K-Ras protein in mouse pancreas and colorectal tissue, Western blot analysis; type: in vivo; conditions: C57BL/6J mice, intraperitoneal, TUS-007 40 or 80 mg/kg, Ras-SOS 80 mg/kg, 48 hours; pancreas and colon; FIG. 8
T6 construct: an endogenous wild-type K-Ras protein and wild-type H-Ras protein; from tissue; host or cells: mouse pancreas and colon
Experimental: as §4, §5, §6, §7, §8

[9] = target: T7, PAC-3 (molecule assembly factor) (Homo sapiens, UniProt Q9BT73); conditions: Table 17; cited from earlier work
T7 sequence (Q9BT73 1-122): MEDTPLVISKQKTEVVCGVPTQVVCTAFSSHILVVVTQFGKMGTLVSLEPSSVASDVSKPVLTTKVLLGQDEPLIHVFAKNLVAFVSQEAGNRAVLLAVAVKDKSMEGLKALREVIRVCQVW

[10] = target: T4, catalytic subunit β1 of a proteasome; conditions: literature report, consistent with FIG. 13A; cited from earlier work

| SMILES | inhibitory activity against proteasome β5 (chymotrypsin-like activity) [1] | inhibitory activity against proteasome β2 (trypsin-like activity) [3] | degradation (knockdown) of the ecDHFR protein (shift of GFP/DsRed ratio graph) (ecDHFR protein [4]) | inhibitory activity against proteasome β1 (caspase-like activity) [5] | apoptosis induction (proportion of Annexin V-positive and PI-negative cells) (HeLa cells) | apoptosis induction (proportion of Annexin V-positive and PI-negative cells) (SW1990 cells) | other results |
| --- | --- | --- | --- | --- | --- | --- | --- |
| COc1nc(NCCCCCCNC(=O)COc2c(OC)cc(Cc3cnc(N)nc3N)cc2OC)nc(OC)n1 [TMP-CANDDY_DMT] | significantly lower proteasome inhibitory activity as compared with MG-132 | significantly lower proteasome inhibitory activity as compared with MG-132 | degradation of the ecDHFR protein was induced | significantly lower proteasome inhibitory activity as compared with MG-132 |  |  | amount of the ecDHFR protein (Western blot) (ecDHFR protein [2]; 24 hours after addition, cycloheximide 50 μg/mL at 12 hours): the amount of the ecDHFR protein was reduced; degradation of the ecDHFR protein when both TMP-CANDDY_DMT and bortezomib were added (ecDHFR protein [2]; bortezomib co-added, compared with TMP-CANDDY_DMT alone): degradation of the ecDHFR protein was inhibited |
| CC[C@H](C)[C@H](N)C(=O)Nc1ccc2[nH]c(Cc3c[nH]c4ccccc34)nc2c1 [Ras-SOS] |  |  |  |  | apoptosis was induced in a concentration-dependent manner | the effect of the apoptosis induction by Ras-SOS was largely reduced | inhibition of the interaction between the Ras protein and the SOS protein [6]: inhibit the interaction between the Ras protein and the SOS protein; amount of the endogenous wild-type H-Ras protein in mouse tissues (Western blot) [7]: the amount of the wild-type K-Ras protein and the wild-type H-Ras protein was not reduced; binding to K-Ras protein (wild-type, G12D mutant, G12V mutant) (K-Ras protein): bound to not only a wild-type K-Ras protein but also a G12D mutant and a G12V mutant K-Ras protein; amount of the endogenous wild-type K-Ras protein in mouse tissues (Western blot) [8]: the amount of the wild-type K-Ras protein and the wild-type H-Ras protein was not reduced |
| CCCC[C@H](NC(=O)[C@H](CC(C)C)NC(=O)[C@H](CC(C)C)NC(C)=O)C(=O)NCCCCCCNC(=O)COc1c(OC)cc(Cc2cnc(N)nc2N)cc1OC [TMP-CANDDY_ALLN] | the inhibitory activity was weakened | the inhibitory activity was weakened | degradation of the ecDHFR protein was induced | increased against any of β1, β2, and β5 in a concentration dependent manner |  |  |  |
| C#Cc1cccc(Nc2ncnc3cc(OCCOC)c(OCCOC)cc23)c1 [erlotinib] |  |  |  |  | apoptosis was induced in a concentration-dependent manner | the effect of the apoptosis induction by erlotinib was largely reduced |  |
| CC(C)C(O)(CC1C(=O)/C(=C(\O)[C@H]2C3CCCC[C@H]3C=C[C@H]2C)C(=O)N1C)C(=O)O (some centres unmarked) [JBIR-22] |  |  |  |  |  |  | Others: PAC-3 inhibition [9]: PAC-3 (molecule assembly factor) inhibition) |
| CCCC[C@@H](C=O)NC(=O)[C@H](CC(C)C)NC(=O)[C@H](CC(C)C)NC(C)=O [ALLN] (Ac-Leu-Leu-[Nle]-aldehyde) |  |  |  |  |  |  | inhibition of proteasome β1 as reported (Kaiser, M. et al.) [10]: β1 was not inhibited by ALLN |
